# Assay results published in patent US10611747B2, “Pyrone based compounds for treating bacterial infections” (FORGE THERAPEUTICS, INC., priority 2015, dated 2020).
# pIC50: −log10 of the molar value. Like-named read-outs stand apart in the source and are kept apart here.
# What was measured:
# [1] = tested on: E. coli ATCC 25922; experiment: Bacterial susceptibility testing (MIC, broth microdilution); format: cell-based; settings: Escherichia coli
# Protocol: (§1) Minimal inhibitory concentrations (MIC) were determined by the broth microdilution method in accordance with the Clinical and Laboratory Standards Institute (CLSI) guidelines. In brief, organism suspensions were adjusted to a 0.5 McFarland standard to yield a final inoculum between 3×10^5 and 7×10^5 colony-forming units (CFU)/mL. Drug dilutions and inocula were made in sterile, cation adjusted Mueller-Hinton Broth (Beckton Dickinson). An inoculum volume of 100 μL was added to wells containing 100 μL of broth with 2-fold serial dilutions of drug. All inoculated microdilution trays were incubated in ambient air at 35° C. for 18-24 h. […] Performance of the assay was monitored by the use of laboratory quality-control strains and levofloxacin, a compound with a defined MIC spectrum, in accordance with CLSI guidelines.
# [2] = tested on: E. coli delta tolC; experiment: as above; format: cell-based; settings: Escherichia coli, 24 h, read-out: MIC E. coli delta tolC
# Protocol: as §1
# [3] = tested on: E. coli imp mutant; experiment: as above; format: cell-based; settings: Escherichia coli, read-out: MIC E. coli imp mutant
# Protocol: as §1
# [4] = tested on: S. aureus ATCC 29213; experiment: as above; format: cell-based; settings: Staphylococcus aureus
# Protocol: as §1
# [5] = molecular target: LpxC (Klebsiella pneumoniae subsp. pneumoniae, UniProt A6T4N9); experiment: Inhibition assay against Klebsiella pneumonae LpxC (LC-MS/MS); format: biochemical; settings: LpxC 0.2 nM Kpn, 22° C., 60 minutes
# Protocol: LpxC inhibition assays were performed using liquid chromatography with tandem mass spectrometry. Assays were performed, in duplicate, in opaque, 96-well microplates in a total assay volume of 50 μL. The incubation mixture contained: LpxC (0.2 nM Kpn), 0.8 μM UDP-3-O—[(R)-3-hydroxymyristoyl]-N-acetyl-glucosamine, 40 mM Bis-Tris/HCI buffer (pH 5.9), 5 mM sodium phosphate buffer (NaH2PO4/Na2HPO4, pH 7.0), 1 mM DTT, 0.1% (w/v) fatty-acid free BSA, 10% DMSO (v/v, with or without compound). The reactions were incubated at 22° C. for 60 minutes (with mild shaking), then terminated by the addition of 25 μL 0.25 N HCl. Samples were analyzed using a LC-MS system to measure native LpxC substrate and reaction product. IC50 analysis was done using GeneData Screener and a four parameter variable slope normalized to controls. Test compounds were prepared as 8-point dose-response curves (factor dilution 2) in triplicate, starting at 1 μM final concentration. Each assay plate included 6 wells used for the Z′ factor calculation, 3 as a positive control for the assay and 3 as a negative control. The robustness was calculated as the median Z′ factor for 5 plates.
# [6] = tested on: E. coli BW25113; experiment: Bacterial susceptibility testing (MIC, broth microdilution); format: cell-based; settings: Escherichia coli, no FBS, 35° C., 18-24 h
# Protocol: as §1
# [7] = tested on: P. aeruginosa 209; experiment: as above; format: cell-based; settings: Pseudomonas aeruginosa, 209; broth microdilution, 35° C., 18-24 h; read-out: MIC P. aeruginosa 209
# Protocol: as §1
# [8] = tested on: P. aeruginosa 210 delta mexAB-OprM; experiment: as above; format: cell-based; settings: Pseudomonas aeruginosa, read-out: MIC P. aeruginosa 210 delta mexAB-OprM
# Protocol: as §1
# [9] = ATCC25922, no FBS, broth microdilution, 35° C., 18-24 h, read-out: MIC E. coli ATCC 25922-no FBS
# [10] = ATCC29213, broth microdilution, 35° C., 18-24 h, read-out: MIC S. aureus ATCC 29213
# Sequence of LpxC (A6T4N9 whole entry): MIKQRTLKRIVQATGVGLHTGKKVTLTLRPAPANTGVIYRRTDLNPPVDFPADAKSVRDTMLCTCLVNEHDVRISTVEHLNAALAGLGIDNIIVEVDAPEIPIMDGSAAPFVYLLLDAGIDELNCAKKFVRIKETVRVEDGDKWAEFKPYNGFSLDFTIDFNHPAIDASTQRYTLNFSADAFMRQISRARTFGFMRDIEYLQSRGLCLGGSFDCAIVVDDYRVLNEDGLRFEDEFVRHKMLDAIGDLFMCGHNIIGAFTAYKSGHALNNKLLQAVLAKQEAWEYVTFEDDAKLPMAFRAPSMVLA
SMILES,"MIC ([1]; ATCC25922, read-out: MIC E. coli ATCC 25922-no FBS) [µg/mL]",MIC [2] [µg/mL],MIC [3] [µg/mL],"MIC ([4]; ATCC29213, read-out: MIC S. aureus ATCC 29213) [µg/mL]",pIC50 [5],"MIC [1, 9] [µg/mL]",MIC [6] [µg/mL],MIC [7] [µg/mL],MIC [8] [µg/mL],"MIC [4, 10] [µg/mL]"
"CNC(=O)c1ccc(C#CC#Cc2ccc(NCc3oc(CS(C)(=O)=O)cc(=O)c3O)cc2)cc1 [Compound 4, 4-((4-(((3-hydroxy-6-((methylsulfonyl)methyl)-4-oxo-4H-pyran-2-yl)methyl)amino)phenyl)buta-1,3-diyn-1-yl)-N-methylbenzamide]",1 to 8,< 1,8 to 32,> 32,< 7.00,,,,,
O=c1ccoc(CNc2ccc(C#CC#Cc3ccccc3)cc2)c1O [Compound 28],,1 to 8,1 to 8,,< 7.00,1 to 8,1 to 8,> 32,> 32,> 32
O=C(c1ccc(C#CC#Cc2ccc(NCc3occc(=O)c3O)cc2)cc1)N1CCOCC1 [Compound 32],,< 1,1 to 8,,7.00 to 8.00,1 to 8,1 to 8,> 32,> 32,> 32
CNC(=O)c1ccc(C#CC#Cc2ccc(NCc3occc(=O)c3O)cc2)cc1 [Compound 35],,< 1,1 to 8,,< 7.00,1 to 8,1 to 8,> 32,> 32,> 32
O=C(O)c1ccc(C#CC#Cc2ccc(NCc3occc(=O)c3O)cc2)cc1 [Compound 38],,< 1,< 1,,< 7.00,1 to 8,< 1,> 32,8 to 32,> 32
O=C(c1ccc(C#CC#Cc2ccc(NCc3occc(=O)c3O)cc2)cc1)N1CC(O)C1 [Compound 39],,< 1,1 to 8,,7.00 to 8.00,1 to 8,1 to 8,> 32,8 to 32,> 32
CN1CCN(C(=O)c2ccc(C#CC#Cc3ccc(NCc4occc(=O)c4O)cc3)cc2)CC1 [Compound 40],,< 1,< 1,,7.00 to 8.00,1 to 8,1 to 8,> 32,8 to 32,> 32
O=c1ccoc(CNc2ccc(C#CC#Cc3ccc(CN4CCOCC4)cc3)cc2)c1O [Compound 47],,1 to 8,1 to 8,,7.00 to 8.00,8 to 32,1 to 8,> 32,> 32,> 32
O=C(c1ccc(C#Cc2ccc(NCc3occc(=O)c3O)cc2)cc1)N1CC(O)C1 [Compound 54],,8 to 32,> 32,,,> 32,> 32,> 32,> 32,> 32
O=c1ccoc(CNc2ccc(C#Cc3ccc(CN4CCOCC4)cc3)cc2)c1O [Compound 55],,1 to 8,1 to 8,,,1 to 8,1 to 8,> 32,8 to 32,> 32
